Reference: ChEMBL document CHEMBL6078717, “An overview of GPX4-targeting TPDs for cancer therapy” (Bioorg Med Chem, 2025)

Key:
[1] = Antiproliferative activity against HEK293T cells assessed as reduction in cell growth; type: toxicity, cell-based, HEK-293T; conditions: human
[2] = test system: Calu-1; test: Antiproliferative activity against human Calu-1 cells assessed as inhibition of cell growth incubated for 24 hrs by MTT assay; type: functional, cell-based; conditions: Calu-1, 24 h
[3] = PROTAC activity at GPX4/E3 ligase in human HT-1080 cells assessed as degradation of GPX4 protein incubated for 24 hrs by Western blotting analysis; type: cell-based; conditions: HT-1080, 24 h
[4] = test system: MDA-MB-231; test: Antiproliferative activity against human MDA-MB-231 cells assessed as reduction in cell viability after 48 hrs by SRB assay; type: functional, cell-based; conditions: MDA-MB-231, 48 h
[5] = test system: DU-145; test: Antiproliferative activity against human DU-145 cells assessed as cell growth inhibition by SRB assay; type: functional, cell-based
[6] = test system: 786-0; test: Antiproliferative activity against human 786-0 cells assessed as cell growth inhibition measured for 48 hrs by SRB assay; type: functional, cell-based; conditions: 786-0, 48 h

| IC50 [2] [nM] | DC50 [3] [nM] | IC50 [4] [nM] | IC50 [5] [nM] | IC50 [6] [nM] | Compound | IC50 [1] [nM] |
| --- | --- | --- | --- | --- | --- | --- |
| – | – | – | – | – | COC(=O)c1ccc([C@H]2c3[nH]c4ccccc4c3C[C@H](C(=O)OC)N2C(=O)CCl)cc1 | 310 |
| 860 | 130 | – | – | – | O=C1CCC(N2C(=O)c3cccc(NCCCCN(C(=O)CCl)C(C(=O)NCc4ccccc4)c4cccs4)c3C2=O)C(=O)N1 (centres undefined) | – |
| 2930 | 210 | – | – | – | O=C1CCC(N2C(=O)c3cccc(NCCOCCOCCOCCN(C(=O)CCl)C(C(=O)NCc4ccccc4)c4cccs4)c3C2=O)C(=O)N1 (centres undefined) | – |
| – | 57 | 31 | 92 | 125 | Cc1onc(C(=O)N2CCN(C(c3ccc(Cl)cc3)c3ccc(OCCOCCOCC(=O)NCC45CC6CC(CC(C6)C4)C5)cc3)CC2)c1[N+](=O)[O-] (centres undefined) | – |
